{"source": "patent US9408856B2", "about": "“Topical steroidal formulations” (Temple University—Of The Commonwealth System of Higher …, priority 2008, dated 2016)", "test_system": "TPA-stimulated epidermal DNA synthesis in mouse epidermis", "test": "TPA-induced epidermal DNA synthesis in mouse epidermis, transdermal fluasterone", "assay_type": "in vivo, CD-1 mice", "settings": "20 h", "key": {"[1]": {"settings": "carbitol solution, 1.25 mg/kg transdermal (abdomen) 1 h before 2 μg TPA (back), single mice, 1.25 mg/kg"}, "[2]": {"settings": "carbitol solution, 2.5 mg/kg transdermal (abdomen) 1 h before 2 μg TPA (back), single mice, 2.5 mg/kg"}, "[3]": {"settings": "carbitol solution, 5 mg/kg transdermal (abdomen) 1 h before 2 μg TPA (back), single mice, 5 mg/kg"}, "[4]": {"settings": "ethanol:limonene:isopropyl myristate (81:15:4) solution, 1.5 mg/kg transdermal (abdomen) 1 h before 2 μg TPA (back), single mice, 1.5 mg/kg"}, "[5]": {"settings": "ethanol:limonene:isopropyl myristate (81:15:4) solution, 5 mg/kg transdermal (abdomen) 1 h before 2 μg TPA (back), single mice, 5 mg/kg"}, "[6]": {"settings": "micronized suspension in ethanol:water:Tween 80 (76:19:5), 1.5 mg/kg transdermal (abdomen) 1 h before 2 μg TPA (back), single mice and group mean, 1.5 mg/kg"}, "[7]": {"settings": "micronized suspension in ethanol:water:Tween 80 (76:19:5), 1.5 mg/kg transdermal (abdomen) 1 h before 2 μg TPA (back), single mice, 1.5 mg/kg"}, "[8]": {"settings": "micronized suspension in ethanol:water:Tween 80 (76:19:5), 2.5 mg/kg transdermal (abdomen) 1 h before 2 μg TPA (back), single mice, 2.5 mg/kg"}}, "note": "Several values for one entry are separate records, joined by “and”; a condition that tells them apart may be missing. Equal entries are not always repeated."}
{"smiles": "C[C@]12CCCCC1=CC[C@@H]1[C@@H]2CC[C@]2(C)C(=O)[C@H](F)C[C@@H]12", "note": "[Fluasterone, 16α-fluoro-5-androsten-17-one]", "values": [{"measurement": "cpm/μg DNA", "setting": "carbitol solution, 1.25 mg/kg transdermal (abdomen) 1 h before 2 μg TPA (back), single mice and group mean, 1.25 mg/kg", "value": "270.1 cpm/μg DNA and 341.3 cpm/μg DNA and 287.9 ± 25.2 cpm/μg DNA"}, {"measurement": "corrected cpm", "setting": "[1]", "value": "6,051 cpm and 10,170 cpm"}, {"measurement": "cpm", "setting": "[1]", "value": "6,086 cpm and 10,205 cpm"}, {"measurement": "μg DNA/0.2 mL", "setting": "[1]", "value": "22.4 μg DNA/0.2 mL and 29.8 μg DNA/0.2 mL"}, {"measurement": "μg DNA/0.2 mL", "setting": "carbitol solution, 1.9 mg/kg transdermal (abdomen) 1 h before 2 μg TPA (back), single mice, 1.9 mg/kg", "value": "18.4 μg DNA/0.2 mL and 11.8 μg DNA/0.2 mL"}, {"measurement": "cpm/μg DNA", "setting": "carbitol solution, 2.5 mg/kg transdermal (abdomen) 1 h before 2 μg TPA (back), single mice and group mean, 2.5 mg/kg", "value": "64.8 cpm/μg DNA and 73.8 cpm/μg DNA and 69.3 ± 6.3 cpm/μg DNA"}, {"measurement": "corrected cpm", "setting": "[2]", "value": "616 cpm and 649 cpm"}, {"measurement": "cpm", "setting": "[2]", "value": "651 cpm and 684 cpm"}, {"measurement": "μg DNA/0.2 mL", "setting": "[2]", "value": "9.5 μg DNA/0.2 mL and 8.8 μg DNA/0.2 mL"}, {"measurement": "corrected cpm", "setting": "[3]", "value": "5,338 cpm and 5,045 cpm"}, {"measurement": "cpm", "setting": "[3]", "value": "5,373 cpm and 5,080 cpm"}, {"measurement": "μg DNA/0.2 mL", "setting": "[3]", "value": "10.0 μg DNA/0.2 mL and 10.8 μg DNA/0.2 mL"}, {"measurement": "μg DNA/0.2 mL", "setting": "ethanol:limonene:isopropyl myristate (81:15:4) solution, 1.5 mg/kg transdermal (abdomen) 1 h before 2 μg TPA (back), single mice and group mean, 1.5 mg/kg", "value": "25.8 μg DNA/0.2 mL and 25.1 μg DNA/0.2 mL"}, {"measurement": "corrected cpm", "setting": "[4]", "value": "5,854 cpm and 3,703 cpm"}, {"measurement": "cpm", "setting": "[4]", "value": "5,883 cpm and 3,732 cpm"}, {"measurement": "μg DNA/0.2 mL", "setting": "ethanol:limonene:isopropyl myristate (81:15:4) solution, 2.5 mg/kg transdermal (abdomen) 1 h before 2 μg TPA (back), single mice and group mean (p < 0.05 vs TPA), 2.5 mg/kg", "value": "18.1 μg DNA/0.2 mL and 15.3 μg DNA/0.2 mL"}, {"measurement": "μg DNA/0.2 mL", "setting": "ethanol:limonene:isopropyl myristate (81:15:4) solution, 5 mg/kg transdermal (abdomen) 1 h before 2 μg TPA (back), single mice and group mean (p < 0.05 vs TPA), 5 mg/kg", "value": "15.9 μg DNA/0.2 mL and 17.3 μg DNA/0.2 mL"}, {"measurement": "cpm/μg DNA", "setting": "ethanol:limonene:isopropyl myristate (81:15:4) solution, 5 mg/kg transdermal (abdomen) 1 h before 2 μg TPA (back), single mice and group mean, 5 mg/kg", "value": "532.5 cpm/μg DNA and 603.2 cpm/μg DNA"}, {"measurement": "corrected cpm", "setting": "[5]", "value": "8,467 cpm and 10,436 cpm"}, {"measurement": "cpm", "setting": "[5]", "value": "8,496 cpm and 10,465 cpm"}, {"measurement": "cpm/μg DNA", "setting": "[6]", "value": "135.7 cpm/μg DNA and 98.9 cpm/μg DNA"}, {"measurement": "μg DNA/0.2 mL", "setting": "[6]", "value": "34.3 μg DNA/0.2 mL and 35.2 μg DNA/0.2 mL"}, {"measurement": "corrected cpm", "setting": "[7]", "value": "4,655 cpm and 3,481 cpm"}, {"measurement": "cpm", "setting": "[7]", "value": "4,684 cpm and 3,510 cpm"}, {"measurement": "μg DNA/0.2 mL", "setting": "micronized suspension in ethanol:water:Tween 80 (76:19:5), 2.5 mg/kg transdermal (abdomen) 1 h before 2 μg TPA (back), single mice and group mean (p < 0.02 vs TPA), 2.5 mg/kg", "value": "19.6 μg DNA/0.2 mL and 16.6 μg DNA/0.2 mL"}, {"measurement": "cpm/μg DNA", "setting": "micronized suspension in ethanol:water:Tween 80 (76:19:5), 2.5 mg/kg transdermal (abdomen) 1 h before 2 μg TPA (back), single mice and group mean, 2.5 mg/kg", "value": "109.5 cpm/μg DNA and 139.0 cpm/μg DNA"}, {"measurement": "corrected cpm", "setting": "[8]", "value": "2,147 cpm and 2,308 cpm"}, {"measurement": "cpm", "setting": "[8]", "value": "2,176 cpm and 2,337 cpm"}, {"measurement": "μg DNA/0.2 mL", "setting": "micronized suspension in ethanol:water:Tween 80 (76:19:5), 5 mg/kg transdermal (abdomen) 1 h before 2 μg TPA (back), single mice and group mean (p < 0.01 vs TPA), 5 mg/kg", "value": "16.5 μg DNA/0.2 mL and 18.9 μg DNA/0.2 mL"}]}
